Results from PubChem BioAssay (NCI).
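Where inhibition never reached the appropriate level, the endpoint shown equals the highest concentration tested. Otherwise, values were interpolated linearly from a five-concentration, 48-hour dose response in 96-well plates. Here, GI50 denotes the concentration required for 50% inhibition of growth. TGI: concentration producing complete growth inhibition.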

What was measured:
Experiment in all cases: inhibition of tumour cell growth, NCI panel, 48 h
T-47D breast = test system: T-47D breast
BT-549 breast = test system: BT-549 breast
DMS 273 small cell lung = test system: DMS 273 small cell lung
LXFL 529 NSCLC = test system: LXFL 529 NSCLC
KM20L2 colon = test system: KM20L2 colon
HOP-18 NSCLC = test system: HOP-18 NSCLC
XF 498 CNS = test system: XF 498 CNS
M19-MEL melanoma = test system: M19-MEL melanoma
RXF-631 renal = test system: RXF-631 renal

Structure (SMILES)	GI50 (T-47D breast) [µM]	TGI (T-47D breast) [µM]	TGI (BT-549 breast) [µM]	GI50 (BT-549 breast) [µM]	TGI (KM20L2 colon) [µM]	other results
CC1OC(OC2C(O)C(OCCc3ccc(O)c(O)c3)OC(CO)C2OC(=O)/C=C/c2ccc(O)c(O)c2)C(O)C(O)C1O (centres undefined)	> 100	> 100				
O=C1NC(c2cccc3ccccc23)Nc2ccccc21 (centres undefined)			> 100			
O=C(Nc1cccc(-n2ccc3c(NC(=O)c4ccccc4)nccc32)c1)c1ccc(Cl)c(Cl)c1	1.32	2.85	1.26	0.214		
CC(O)(c1ccc(OCCC[N+](C)(C)C)cc1)C(C)(O)c1ccc(OCCC[N+](C)(C)C)cc1 (centres undefined)					> 100	TGI (DMS 273 small cell lung): > 100 µM; TGI (LXFL 529 NSCLC): > 100 µM; TGI (HOP-18 NSCLC): > 100 µM
O=C(O)CC(S)C(=O)O.[Li+].[Sb] (centres undefined)	> 100	> 100	> 100	> 100		
COc1ccc2[nH]cc(C3(c4c[nH]c5ccc(OC)cc45)C(=O)Nc4ccc(Cl)cc43)c2c1	4.93	> 100	56.8	5.08		
COc1ccc(C(=O)/C=C/c2c(C(F)(F)F)nc3ccccn23)cc1OC	1.78	6.21	43.4	2.34		
O=C(CC1(O)C(=O)Nc2c(Cl)cc(Cl)cc21)c1ccc([N+](=O)[O-])cc1 (centres undefined)					> 100	TGI (XF 498 CNS): > 100 µM; TGI (DMS 273 small cell lung): > 100 µM; TGI (LXFL 529 NSCLC): > 51.5 µM; TGI (M19-MEL melanoma): 22 µM; TGI (HOP-18 NSCLC): > 100 µM
COc1ccc(Cl)cc1Nc1nc(C(F)(F)F)ccc1C(=O)N/N=C/c1ccccc1Cl	1.71	7.68	8.82	1.79		
Cc1cc(=O)n2c(cc3cccccc32)n1					> 100	TGI (DMS 273 small cell lung): > 100 µM; TGI (LXFL 529 NSCLC): > 100 µM
CC(C)c1ccc(C(O)(C(=O)O)c2ccc(C(C)C)cc2)cc1		> 100	> 100			
CCc1nc(N)nc(N)c1-c1ccc(N(C)Cc2ccccc2)c([N+](=O)[O-])c1		21.4	18.4			
CSC(=NC(=O)c1ccccc1)SCCSC(=NC(=O)c1ccccc1)SC					> 100	TGI (XF 498 CNS): > 100 µM; TGI (DMS 273 small cell lung): > 100 µM; TGI (RXF-631 renal): > 100 µM; TGI (LXFL 529 NSCLC): > 100 µM; TGI (M19-MEL melanoma): > 100 µM
Cc1nccc2c3ccc(OCc4cn(-c5ccc(Br)cc5)nn4)cc3n(CCCc3ccccc3)c12	> 100	> 100	7.48	2.47		
CN(C)C[C@@H]1CCn2cc(c3ccccc32)C2=C(C(=O)NC2=O)c2cn(c3ccccc23)CCO1	0.828	> 10	9.57	1.41		
CC(Oc1ccc2c(=O)cc(-c3ccccc3)oc2c1)C(=O)O (centres undefined)					> 100	TGI (XF 498 CNS): > 100 µM; TGI (LXFL 529 NSCLC): > 100 µM; TGI (M19-MEL melanoma): > 100 µM; TGI (HOP-18 NSCLC): > 100 µM
CCOC(=O)Nc1cc2c(c(N)n1)N=C(c1ccccc1)CN2		> 90.5				
CC1(C)C=C(N2CCN(C3=CC(C)(C)NC(C)(C)C3)CC2)CC(C)(C)N1					> 100	TGI (XF 498 CNS): > 100 µM; TGI (DMS 273 small cell lung): > 100 µM; TGI (LXFL 529 NSCLC): > 100 µM; TGI (M19-MEL melanoma): > 100 µM; TGI (HOP-18 NSCLC): > 100 µM

Structure (SMILES)	GI50 (T-47D breast) [µM]	TGI (T-47D breast) [µM]	TGI (BT-549 breast) [µM]	GI50 (BT-549 breast) [µM]	TGI (KM20L2 colon) [µM]	other results
COC1/C=C/OC2(C)Oc3c(C)c(O)c4c(O)c(c(/C=N/N(c5ccccc5)c5ccccc5)c(O)c4c3C2=O)NC(=O)C(C)=C/C=C/C(C)C(O)C(C)C(O)C(C)C(OC(C)=O)C1C (centres undefined)	1.82	7.87	8.83	2.5		
CCN(CC)CCNc1ccc(N=Nc2cnc3ccccc3c2)c2ccccc12	1.81	4.08				
CN(C)c1ccc2cc3c(cc2c1)Oc1ccccc1N3.[Cl][Zn][Cl]			27.7	14.4		
COc1cc(C(=O)c2cnc(-c3ccc4cc[nH]c4c3)[nH]2)cc(OC)c1OC			3.12	0.0631		
O=C1C(c2ccccc2)=[N+]([O-])c2cc([N+](=O)[O-])ccc21					47.3	TGI (XF 498 CNS): 39.3 µM; TGI (M19-MEL melanoma): 32.9 µM; TGI (HOP-18 NSCLC): > 100 µM
COc1ccc2[nH]cc(Cc3c[nH]c4ccc(OC)cc34)c2c1			36.1	17.4		
CN(C)c1ccc(/C=N/n2c(CCCCc3n[nH]c(=S)n3/N=C/c3ccc(N(C)C)cc3)n[nH]c2=S)cc1	0.022	17.3				
CCOP(=O)(OCC)C(NC(c1ccccc1)c1ccccc1)c1ccsc1 (centres undefined)			52.3	27.5		
CC(=O)CCn1[nH]c(=O)c(Cl)c(Cl)c1=O					> 100	TGI (XF 498 CNS): > 100 µM; TGI (DMS 273 small cell lung): > 100 µM; TGI (LXFL 529 NSCLC): > 100 µM; TGI (M19-MEL melanoma): > 100 µM; TGI (HOP-18 NSCLC): > 100 µM
O=C1c2c(c3c4ccccc4n(CCCCCCN4CCOCC4)c3c3[nH]c4ccccc4c23)C(=O)N1O	18.7	> 94.6	46.9	17.9		
CC1=C(C(=O)Nc2ccccc2C)C(c2ccccc2O)C(C(=O)Nc2ccccc2C)=C(C)N1					45.6	TGI (XF 498 CNS): 61.5 µM; TGI (DMS 273 small cell lung): 35.2 µM; TGI (LXFL 529 NSCLC): 51 µM; TGI (M19-MEL melanoma): 52 µM; TGI (HOP-18 NSCLC): 55.6 µM
Cc1ccc2c(c1)C(=O)/C(=C/c1cccc(OCC(=O)c3ccc(Cl)cc3)c1)CS2	5.67	26.5	33.8	12.8		
CCCc1nn(C)c(CCC(=O)N(Cc2ccccc2)Cc2ccccc2)c1CC					> 100	TGI (XF 498 CNS): > 100 µM; TGI (LXFL 529 NSCLC): > 100 µM; TGI (M19-MEL melanoma): > 100 µM; TGI (HOP-18 NSCLC): > 100 µM
CC(=O)OC(C)(C)C[N+](=O)[O-]					> 100	TGI (DMS 273 small cell lung): > 100 µM; TGI (LXFL 529 NSCLC): > 100 µM; TGI (M19-MEL melanoma): > 100 µM
O=c1oc2ccc(I)cc2c(=O)n1-c1ccc(I)cc1F	0.298	3.49	2.02	0.403		
C#Cc1cccc(Nc2ncnc3ccc(-c4cnc(N)nc4)cc23)c1	0.664	4.62	9.37	2.07		
O=C(CCN1CCCC1)Nc1ccc2c(Nc3ccc(Br)cc3)c3ccccc3nc2c1			3	1.44		
O=C(CS(=O)c1nc2ccccc2nc1-c1ccccc1)Nc1ccc(Cl)cc1 (centres undefined)	32.7	> 100	53.1	1.33		
